Results from patent US11484576B2, “Methods of promoting corticospinal neuronal outgrowth in neuronal lesions using a pro-regenerative human osteopontin fragment” (THE CHILDREN'S MEDICAL CENTER CORPORATION, priority 2017, dated 2022).

Tests used:
[1] = test system: mice with T10 lateral hemisection; assay: Irregular ladder walking after spinal cord T10 lateral hemisection; assay type: in vivo, mouse; details: OPN/IGF1 treated group, T10 hemisection
Description: (§1) Injury Models. […] Briefly, a midline incision was made over the thoracic vertebrae, followed by a T10 laminectomy. The unilateral hemisection was then performed carefully using both scalpel and micro-scissors, avoiding, to the greatest extent, the damage of the spinal cord dura. The muscle layers were then sutured and the skin was secured with wound clips. All mice received post hoc histological analysis and those with spared CST axons (incomplete lateral hemisection) or with significant less CST axons on the contra-lesional side (over lateral hemisection) at the lumbar spinal cord (L3), exemplified in FIG. 9A, were excluded for behavioral analysis.
Virus and Protein Injection.
Irregular Ladder Walking. […] Briefly, the ladder was elevated 30 cm above the ground. […] To prevent animals from learning the pattern, the irregular pattern was changed from trial to trial. All trials were video recorded (Hotshot e64, 100 fps) and paw placement was analyzed twice by blinded observers. Steps with precise placement of the center of the palm on the rung (for both forelimbs and hindlimbs) and digits closed (for forelimbs) were defined as correct steps (hit). All other steps were recorded as errors, which included two types: 1) Miss: when crossing the ladder, the forelimb/hindlimb either completely miss the rung or contact the rung with the wrist/heel instead of the paw; 2) Slip: when crossing the ladder, the mice use a few digits instead of the paw to place on the rungs, causing the subsequent slip on the rungs. The results were expressed as both percentage of total errors and percentage of different placement categories (hit, miss and slip).
(§2) Pharmacological Treatment. […] All behavioral tests were then accomplished between 1-3 hours post administration.

injured mice = assay: Adverse effects of systemic potassium channel blockers in injured mice; assay type: in vivo; details: injured mice treated with OPN/IGF1
Description: Chemicals and Antibodies. For systematic administration (i.p.), Quipazine [Sigma (Q1004), 0.2 mg/kg), SKF-82197 [Tocris (1447) 0.1 mg/kg], and 8-OH-DPAT [Tocris (0529), 0.1 mg/kg), 4AP [Sigma (275875), 1 mg/kg, 3 mg/kg), 4AP-MeOH [Santa Cruz (sc-267247), (1 mg/kg)] were dissolved in saline. Tamoxifen (Sigma, 10540-29-1) was dissolved in oil. For diphtheria toxin mediated cell ablation, we purchased the diptheria toxin from Sigma (D0564). For immunostaining, the primary antibody used were chicken anti-GFP [Abcam (Cat: ab13970)], rabbit anti-RFP [Abcam (Cat: ab34771)], rabbit anti-PKCγ [Santa Cruz (sc211)], rabbit anti-GFAP [DAKO (Z0334)]; rabbit anti-5-HT [Immunostar (20080)], rabbit-anti-IGFR [Santa Cruz (sc-712)] rabbit-anti-pIGFR[3 [Cell signaling technology (3024)], rabbit-anti-pS6 [Cell signaling technology (4857)], rat anti-CD68 [Bio-Rad (MCA 1957)], and Guinea pig-anti-Vglut1 [Synaptic Systems (135304)].
Pharmacological Treatment. […] A pilot experiment was performed and determined that 4AP (1 mg/kg, 3 mg/kg) and 4AP-MeOH (1 mg/kg) achieved their maximal effects within 1-3 hours post systematic administration (i.p.). […]

[2] = test system: mice with unilateral photothrombotic stroke; assay: Single pellet retrieval and irregular ladder walking after unilateral photothrombotic cortical stroke; assay type: in vivo, mouse; details: ischemic mice treated with OPN/IGF1
Description: The procedure of unilateral photothrombotic stroke was similar to that described elsewhere (Watson et al., 1985; Wahl et al., 2014). Briefly, mice were fixed in a stereotactic frame, with the skull exposed. To unilaterally cover the sensoromotor cortex, the cold light source (Zeiss, CL 1500HAL, 3000K) was positioned over an opaque template with an opening (a circle with a diameter of 2.5 mm) centered at (−0.5, 2.0 mm, anterior and lateral to the bregma) on the cortex contralateral to the preferred paw in the food pellet retrieval task. […] Lesion volumes were calculated when mice brains were fixed at the end point of the experiments.
Irregular Ladder Walking. […] All trials were video recorded (Hotshot e64, 100 fps) and paw placement was analyzed twice by blinded observers. […] All other steps were recorded as errors, which included two types: 1) Miss: when crossing the ladder, the forelimb/hindlimb either completely miss the rung or contact the rung with the wrist/heel instead of the paw; 2) Slip: when crossing the ladder, the mice use a few digits instead of the paw to place on the rungs, causing the subsequent slip on the rungs. The results were expressed as both percentage of total errors and percentage of different placement categories (hit, miss and slip).
Single pellet Retrieval. […] The success rate was calculated as: number of successful retrievals/total attempts per trail *100. […]

[3] = test system: mice with T10 lateral hemisection; assay: Ground walking and treadmill walking after T10 lateral hemisection; assay type: in vivo, mouse; details: i.p.
Description: as §1, §2

SMILES: Nc1ccncc1CO [4-AP-MeOH, 4-aminopyridine-3-methanol]
- error rate, irregular ladder walking, after 4-AP-MeOH ([1]; 1 mg/kg i.p.): 30%
- error rate, irregular ladder walking, before 4-AP-MeOH [1]: about 48%
- effect and safety compared to 4-AP (injured mice): significantly better effects with broader safety doses
- additional effect on single pellet retrieval and irregular ladder walking [2]: further improvements on both assays
- recovery of treadmill walking performance compared to the control [3]: neither 4-AP nor 4-AP-MeOH had significant effects
